According to US20100184771A1, “Bicyclic Heterocyclic Compound” (ONO PHARMACEUTICAL CO., LTD., priority 2005, published 2010):
pIC50: −log10 of the molar value.

Columns and labels:
human CRF receptor I [1] = molecular target: T1, human CRF receptor I (Homo sapiens, UniProt P34998); assay: Binding assay (125I-CRF, membrane fraction of CHO-K1 cells with forced expression of the receptor); settings: 125I-CRF 0.25 nM, room temperature, 2 hours
T1 construct: expressed in transfected cells; host or cells: CHO-K1
T1 sequence (P34998 24-415): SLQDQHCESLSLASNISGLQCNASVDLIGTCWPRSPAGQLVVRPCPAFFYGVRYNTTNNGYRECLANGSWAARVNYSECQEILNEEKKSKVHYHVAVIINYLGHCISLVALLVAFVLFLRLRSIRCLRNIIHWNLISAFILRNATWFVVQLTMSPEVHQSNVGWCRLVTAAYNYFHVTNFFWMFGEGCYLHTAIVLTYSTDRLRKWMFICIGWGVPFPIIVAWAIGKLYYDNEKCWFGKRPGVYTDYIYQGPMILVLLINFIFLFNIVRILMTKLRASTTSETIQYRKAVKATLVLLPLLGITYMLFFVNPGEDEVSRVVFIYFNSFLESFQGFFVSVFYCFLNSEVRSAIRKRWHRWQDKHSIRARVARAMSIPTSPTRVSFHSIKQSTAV
Procedure: The forced-expression cell strain of the human CRF receptor I (parent strain is CHO-K1 cell) was cultured until the cell was confluent and collected with a scraper. The collected cells were washed twice with PBS, and were suspended with an ice-colded binding assay buffer (Tris-HCl (50 mM, pH 7.0), EDTA (2 mM, pH 8.0), and MgCl2 (10 mM)). After fractured with a dounce-type homogenizer, the suspended cells were centrifuged at 10,000 g, and a membrane fraction was collected. The collected membrane fraction was resuspended with a little amount of the binding assay buffer, thereafter diluted with the binding assay buffer so as to have a concentration of 1 mg/mL. The obtained membrane fraction was used for a binding assay.
^125I-CRF was diluted with the binding assay buffer so as to have a concentration of 0.5 nM, whereby 50 μL of the diluted ^125I-CRF was added to a siliconized 1.5-mL tube. Next, test drugs diluted at appropriate times, such as DMSO (for general binding) or 100 μM of CRF (for non-specific binding), was added to a […]. Finally, 50 μL of the membrane fraction was added thereto and the reaction was started (final concentration of ^125I-CRF was 0.25 nM). The tube was incubated at room temperature for 2 hours. […] A membrane binding count was measured using a γ counter. The specific binding count was obtained by subtracting the non-specific count from the measured count.

human CRF receptor I [2] = molecular target: T1, human CRF receptor I; assay: Receptor antagonistic activity (cyclic AMP assay); format: cell-based; settings: human/rat CRF stimulation, 37° C., 15 minutes; read-out: IC50 value, antagonistic activity against CRF (accumulated cyclic AMP)
Procedure: The forced expression cell strain of the human CRF receptor I was cultured at 37° C. under 5% carbon dioxide and 95% air by using a Ham's F-12 medium (F-12 nutrient mixture) containing 10% bovine fetal serum and 1% antibiotic substance-antifungal agent. On the previous day before the cyclic AMP was measured, the cells were inoculated into a 96-well plate in an amount of 1×10^4 cell/well. On the measurement day, the cells were washed twice with a Ham's F-12 medium, whereby a solution of Ham's F-12 medium/1 mM 3-isobutyl-1-methylxanthine (assay medium) (178 μL) was added to each well. After the incubation at 37° C. for 10 minutes, test drug solutions (2 μL) in various concentrations were added thereto, or DMSO (2 μL) was added to a CRF group and a blank group. An assay medium (20 μL) containing 10 nM human/rat CRF was added to wells of a compound group and the CRF group. An assay medium (20 μL) containing 0.00001% acetic acid was added to the blank group. Each group was further incubated at 37° C. for 15 minutes. […] The accumulated cyclic AMP amounts were calculated by subtracting mean values of corresponding 2 wells in the blank group from that of 2 wells. The IC50 values were calculated with non-linear regression analysis by defining logarithm concentration of the compound as independent variable and an accumulated cyclic AMP amount as dependent variable.

swim-stressed SD rat = assay: Elevated plus maze test with swim-stressed rat; format: in vivo; settings: orally, 1 hour before the test
Procedure: 2 open arms with the same lengths (50×10 cm) and 2 close arms (a 30 cm wall was provided) with the same lengths (50×10 cm) were arranged in orthogonal manner at a height of 50 cm from the floor to provide an elevated crossroad maze system. In 70 cm above the both open arms, white light was provided, whereby illuminance was maintained at constant.
A 7-week-old SD rat (CHARLES RIVER LABORATORIES JAPAN) was forcedly made to swim for 120 seconds in a pool (40×30×38 cm) at 22° C. of water temperature and 25 cm of water depth. After 9 minutes of soaking stress loading, the rat was put on the center of the system. The activity for 5 minutes of the rat was analyzed with an automatic activity-tracking analysis system (EthoVision Version 3.0, Noldus Information Technology) to calculate the dwell time (second) on the open arm.
Note that no soaking stress was loaded on the control group. In addition, 20% Solutol/HS15 (5 mL/Kg) was orally administered to the vehicle group and test drugs in various concentrations were orally administrated to the test drug administration group 1 hour before the test.

pIC50 (human CRF receptor I [1]): 7.79
pIC50 (human CRF receptor I [2]): 8.31
Compound: CCC(CC)c1cc(C)n2nc(-c3ccc(OC)cc3C)c(C)cc12 [Example 8, 5-(1-ethylpropyl)-2-(4-methoxy-2-methylphenyl)-3,7-dimethylpyrrolo[1,2-b]pyridazine]
dwell time on the open arm compared to that of the vehicle group (swim-stressed SD rat; 10 mg/kg): favorably elongated the dwell time on the open arm
dwell time on the open arm compared to that of the vehicle group (swim-stressed SD rat): favorably elongated the dwell time on the open arm
